Laboratory results from US20040214799A1, “Cancerous metastasis inhibitors containing carbacyclic phosphatidic acid derivatives” (priority 2001, published 2004).

Columns and labels:
MM1 cells = assay: In vitro invasion assay, LPA-induced invasion of MM1 cells across mesothelial cell monolayer; type: cell-based, rat; details: 25 μM LPA; for invasion suppressing activity on LPA-induced invasion, carba-cPA at low concentration (in words): 0.5 μM, 1 μM or 10 μM carba-cPA
Method: The abdomen of a male DONRYU rat (300 g, NIPPON BIO-SUPP. CENTER) was opened aseptically. The thus obtained mesenterium was treated with 0.25% trypsin at 37° C. for 15 minutes, filtrated with a 150 μm stainless mesh, and then centrifuged to collect mesothelial cells. The cells were cultured under conditions of 37° C. and 5% CO2 in a medium which was obtained by adding 10% FBS to Eagle's MEMI (Nissui) supplemented with Eagle's MEM amino acid vitamin medium (Nissui) in a volume twice as great as that of the MEMI. A mesothelial cell monolayer which had reached a confluent density after 1 week of culturing was used for invasion assay.
The MM1 cells, which are highly invasive clones of rat ascites hepatoma cells (AH-130), were established by Mukai et al., (Int. J. Cancer : 81, 918-922 (1999)), and was cultured under the same conditions as those for mesothelial cells.
In vitro invasion assay was developed by Akedo et al (Akedo, H et al., Cancer Res. 46, 2416-2422 (1986)). MM1 cells were multi-layer-cultured on the mesothelial cell layer, which had been grown to reach a confluent density, in the presence of 10% FBS or 25 μM LPA (SIGMA). 25 μM cPA was then added. The cells were cultured under conditions of 37° C. and 5% CO2 for 20 hours, and then fixed with 10% formalin. The number of colonies of MM1 cells that had invaded was counted under a phase-contrast microscope (FIG. 3).
cPA and LPA were ice-cooled in PBS containing 0.1% fatty-acid free BSA (SIGMA), ultrasonicated, emulsified, stored at −20° C., and then used.
0.5 μM, 1 μM and 10 μM carba-cPA were added to MM1 cells, and then in vitro invasion assay was performed similarly to (1-1) in the presence of 25 μM LPA.
The following reagents were respectively added to an in vitro invasion assay system so as to examine their effects on MM1 cell invasion in the presence of 25 μM LPA: Forskolin (Wako) which directly activates adenylate cyclase (cAMP synthase); cholera toxin (CTX) (GIBCO BRL) which prevent the deactivation of G protein (Gs) which activates adenylate cyclase; Bt2cAMP (nacalai tesque) which can pass through the membrane and functions in a manner similar to that of cAMP when it enters the cell; or isobutylmethylxanthine (IBMX, 3-isobutyl-1-methylxanthine) (SIGMA) which inhibits phosphodiesterase (cAMP degrading enzyme).

[1] = General state and body weight of B16-F0 melanoma-bearing mice; type: in vivo; details: for Body weight (g) day 0: day 0, mean ± S.D.; for Body weight (g) day 0 / Body weight (g) day 4 / Body weight (g) day 7 / Body weight (g) day 11 / Body weight (g) day 14: N 6; for Body weight (g) day 4: day 4, mean ± S.D.; for Body weight (g) day 7: day 7, mean ± S.D.; for Body weight (g) day 11: day 11, mean ± S.D.; for Body weight (g) day 14: day 14, mean ± S.D.; for body weight compared with the medium group at each measurement (in words): days 0, 4, 7, 11, 14; for effect on changes in body weight (in words): 0.001-0.008 mg/body i.v., days 0 to 14
Method: The mixture was administered via the caudal vein. The number of grafted cells was 5×10^5 cells/body. The dose of the test substance was 0.001, 0.004 or 0.008 mg/body, and the dose of the positive control substance was 0.008 mg/body.
Observation period ranged from days 0 to 14 after the administration of the test substance. Life and death were confirmed every day during this period, and the general state was observed. Body weight measurement was performed twice a week.
The representative value of each test group was denoted as mean±standard deviation (mean±S.D.). Differences in mean values were examined as follows. The number of metastatic nodules was examined by Dunnett's multiple comparison test between the medium group and the cPA-19 group, and between the medium group and the cPA-20 group. The same was examined by the Student's T-test between the medium group and cPA-5 group. The number of metastatic lesions was examined by the Wilcoxon test using the medium group as a control. The number of animals having metastatic nodules or metastatic lesions was examined by Fisher's extract probability test using the medium group as a control. The significance levels were 1% and 5%.

Compound | suppression of LPA-induced invasion (in words) (MM1 cells; 25 μM cPA derivative, 20 hours) | Body weight (g) day 0 ([1]; 0.008 mg/body i.v.) | Body weight (g) day 4 ([1]; 0.008 mg/body i.v.) | Body weight (g) day 7 ([1]; 0.008 mg/body i.v.) | Body weight (g) day 11 ([1]; 0.008 mg/body i.v.) | Body weight (g) day 14 ([1]; 0.008 mg/body i.v.) | body weight compared with the medium group at each measurement (in words) [1] | invasion suppressing activity on LPA-induced invasion, carba-cPA at low concentration (in words) (MM1 cells) | Body weight (g) day 0 ([1]; 0.001 mg/body i.v.) | Body weight (g) day 4 ([1]; 0.001 mg/body i.v.) | Body weight (g) day 7 ([1]; 0.001 mg/body i.v.) | Body weight (g) day 11 ([1]; 0.001 mg/body i.v.) | Body weight (g) day 14 ([1]; 0.001 mg/body i.v.) | Body weight (g) day 0 ([1]; 0.004 mg/body i.v.) | Body weight (g) day 4 ([1]; 0.004 mg/body i.v.) | Body weight (g) day 7 ([1]; 0.004 mg/body i.v.) | Body weight (g) day 11 ([1]; 0.004 mg/body i.v.) | Body weight (g) day 14 ([1]; 0.004 mg/body i.v.) | effect on changes in body weight (in words) [1]
CCCCCCCCCCCCCCCC(=O)OC[C@@H]1COP(=O)(O)O1 [cPA-5, Pal-cPA, reference compound] | suppressed | 15.9 ± 0.6 g | 15.8 ± 0.9 g | 16.2 ± 1.0 g | 17.0 ± 0.8 g | 17.4 ± 1.0 g | no significant difference |  |  |  |  |  |  |  |  |  |  |  | 
carba-Ole-cPA [cPA-19] |  | 15.9 ± 0.6 g | 15.4 ± 0.5 g | 15.9 ± 0.5 g | 16.8 ± 0.5 g | 17.0 ± 0.4 g | no significant difference | stronger invasion suppressing activity than cPA-18 | 15.9 ± 0.6 g | 15.5 ± 0.5 g | 15.8 ± 0.7 g | 16.5 ± 1.0 g | 17.1 ± 1.2 g | 15.9 ± 0.6 g | 16.0 ± 0.5 g | 16.1 ± 0.6 g | 16.7 ± 0.6 g | 17.6 ± 0.9 g | no effect on changes in body weight
carba-ΔPal-cPA [cPA-20] |  | 15.9 ± 0.5 g | 16.1 ± 0.8 g | 16.3 ± 0.8 g | 17.0 ± 0.9 g | 17.7 ± 0.8 g | no significant difference | stronger invasion suppressing activity than cPA-18 | 15.9 ± 0.6 g | 15.5 ± 0.3 g | 16.1 ± 0.6 g | 16.8 ± 0.4 g | 17.4 ± 0.6 g | 16.0 ± 0.6 g | 16.0 ± 0.7 g | 16.2 ± 0.6 g | 16.9 ± 0.7 g | 17.5 ± 0.8 g | no effect on changes in body weight
